Test results from ChEMBL document CHEMBL3885881, “DrugMatrix”.

Species: Rattus norvegicus
Assay: DrugMatrix - Regimen: Daily Repeat
Format: toxicity, organism-based, Sprague-Dawley
Set-up: regimen Daily Repeat, gender Male, age 6-8 weeks
Conditions: in vivo, po, route oral GAVAGE, vehicle .5 % CMC; for ABSOLUTE BASOPHIL / ABSOLUTE EOSINOPHIL / ABSOLUTE LYMPHOCYTE / ABSOLUTE MONOCYTE / ABSOLUTE SEGMENTED NEUTROPHIL / BASOPHIL / EOSINOPHIL / ERYTHROCYTE COUNT / HEMATOCRIT / HEMOGLOBIN / LEUKOCYTE COUNT / LYMPHOCYTE / MEAN CORPUSCULAR HEMOGLOBIN / MEAN CORPUSCULAR HEMOGLOBIN CONCENTRATION / MEAN CORPUSCULAR VOLUME / MONOCYTE / NEUTROPHIL / NUCLEATED RED BLOOD CELLS / PLATELET COUNT: tissue Blood; for ALANINE AMINOTRANSFERASE / ALBUMIN / ALKALINE PHOSPHATASE / ASPARTATE AMINOTRANSFERASE / BLOOD UREA NITROGEN / CARBON DIOXIDE / CHLORIDE / CHOLESTEROL / CREATINE PHOSPHOKINASE / CREATININE / GLUCOSE / LACTATE DEHYDROGENASE / LIPASE / PHOSPHORUS / POTASSIUM / SODIUM / TOTAL BILIRUBIN / TOTAL PROTEIN / URIC ACID: tissue Plasma
[1] = 0 mg/kg, 72 h, dose level Control, time 3 day
[2] = 0 mg/kg, 120 h, dose level Control, time 5 day
[3] = 55 mg/kg, 72 h, dose level Low, time 3 day

CCN1CCCC1CNC(=O)c1cc(S(N)(=O)=O)ccc1OC (centres undefined) [SULPIRIDE]
ABSOLUTE BASOPHIL [1]: 0 CELLS/uL | ABSOLUTE EOSINOPHIL [1]: 0 CELLS/uL | ABSOLUTE LYMPHOCYTE [1]: 12269.67 CELLS/uL | ABSOLUTE MONOCYTE [1]: 160.33 CELLS/uL | ABSOLUTE SEGMENTED NEUTROPHIL [1]: 970 CELLS/uL | BASOPHIL [1]: 0% | EOSINOPHIL [1]: 0% | ERYTHROCYTE COUNT [1]: 5.76 x10E6/uL | HEMATOCRIT [1]: 36.57% | HEMOGLOBIN [1]: 14.22 G/DL | LEUKOCYTE COUNT [1]: 13.4 x10E3/uL | LYMPHOCYTE [1]: 91.67% | MEAN CORPUSCULAR HEMOGLOBIN [1]: 24.67 pg | MEAN CORPUSCULAR HEMOGLOBIN CONCENTRATION [1]: 38.85 G/DL | MEAN CORPUSCULAR VOLUME [1]: 63.52 fL | MONOCYTE [1]: 1.17% | NEUTROPHIL [1]: 7.17% | NUCLEATED RED BLOOD CELLS [1]: 0.33 /100WBC | PLATELET COUNT [1]: 1250.83 x10E3/uL | ALANINE AMINOTRANSFERASE [1]: 49.17 u/L | ALBUMIN [1]: 4.33 G/DL | ALKALINE PHOSPHATASE [1]: 378.5 u/L | ASPARTATE AMINOTRANSFERASE [1]: 82.17 u/L | BLOOD UREA NITROGEN [1]: 15 mg/dL | CARBON DIOXIDE [1]: 34.33 mmol/L | CHLORIDE [1]: 99.17 MEQ/L | CHOLESTEROL [1]: 71.17 mg/dL | CREATINE PHOSPHOKINASE [1]: 258.67 u/L | CREATININE [1]: 0.18 mg/dL | GLUCOSE [1]: 142.67 mg/dL | LACTATE DEHYDROGENASE [1]: 154.33 u/L | LIPASE [1]: 9 u/L | PHOSPHORUS [1]: 11.67 mg/dL | POTASSIUM [1]: 7.13 MEQ/L | SODIUM [1]: 142.22 MEQ/L | TOTAL BILIRUBIN [1]: 0.18 mg/dL | TOTAL PROTEIN [1]: 5.77 G/DL | URIC ACID [1]: 1.55 mg/dL | ABSOLUTE BASOPHIL [2]: 0 CELLS/uL | ABSOLUTE EOSINOPHIL [2]: 23.33 CELLS/uL | ABSOLUTE LYMPHOCYTE [2]: 14943.67 CELLS/uL | ABSOLUTE MONOCYTE [2]: 32 CELLS/uL | ABSOLUTE SEGMENTED NEUTROPHIL [2]: 1084.33 CELLS/uL | BASOPHIL [2]: 0% | EOSINOPHIL [2]: 0.17% | ERYTHROCYTE COUNT [2]: 5.71 x10E6/uL | HEMATOCRIT [2]: 35.28% | HEMOGLOBIN [2]: 14.27 G/DL | LEUKOCYTE COUNT [2]: 16.08 x10E3/uL | LYMPHOCYTE [2]: 93% | MEAN CORPUSCULAR HEMOGLOBIN [2]: 25.02 pg | MEAN CORPUSCULAR HEMOGLOBIN CONCENTRATION [2]: 40.43 G/DL | MEAN CORPUSCULAR VOLUME [2]: 61.82 fL | MONOCYTE [2]: 0.17% | NEUTROPHIL [2]: 6.67% | NUCLEATED RED BLOOD CELLS [2]: 0.33 /100WBC | PLATELET COUNT [2]: 1274 x10E3/uL | ALANINE AMINOTRANSFERASE [2]: 54.17 u/L | ALBUMIN [2]: 4.22 G/DL | ALKALINE PHOSPHATASE [2]: 373.17 u/L | ASPARTATE AMINOTRANSFERASE [2]: 81.83 u/L | BLOOD UREA NITROGEN [2]: 16.67 mg/dL | CARBON DIOXIDE [2]: 30.33 mmol/L | CHLORIDE [2]: 99 MEQ/L | CHOLESTEROL [2]: 71 mg/dL | CREATINE PHOSPHOKINASE [2]: 273.5 u/L | CREATININE [2]: 0.22 mg/dL | GLUCOSE [2]: 141.83 mg/dL | LACTATE DEHYDROGENASE [2]: 153.67 u/L | LIPASE [2]: 10.33 u/L | PHOSPHORUS [2]: 11.38 mg/dL | POTASSIUM [2]: 7.08 MEQ/L | SODIUM [2]: 142.75 MEQ/L | TOTAL BILIRUBIN [2]: 0.18 mg/dL | TOTAL PROTEIN [2]: 6.1 G/DL | URIC ACID [2]: 1.67 mg/dL | ABSOLUTE BASOPHIL [3]: 0 CELLS/uL | ABSOLUTE EOSINOPHIL [3]: 0 CELLS/uL | ABSOLUTE LYMPHOCYTE [3]: 13264 CELLS/uL | ABSOLUTE MONOCYTE [3]: 100 CELLS/uL | ABSOLUTE SEGMENTED NEUTROPHIL [3]: 869.33 CELLS/uL | BASOPHIL [3]: 0% | EOSINOPHIL [3]: 0% | ERYTHROCYTE COUNT [3]: 5.78 x10E6/uL | HEMATOCRIT [3]: 37.4% | HEMOGLOBIN [3]: 14.93 G/DL | LEUKOCYTE COUNT [3]: 14.23 x10E3/uL | LYMPHOCYTE [3]: 93.33% | MEAN CORPUSCULAR HEMOGLOBIN [3]: 25.87 pg | MEAN CORPUSCULAR HEMOGLOBIN CONCENTRATION [3]: 39.97 G/DL | MEAN CORPUSCULAR VOLUME [3]: 64.7 fL | MONOCYTE [3]: 0.67% | NEUTROPHIL [3]: 6% | NUCLEATED RED BLOOD CELLS [3]: 0 /100WBC | PLATELET COUNT [3]: 1265.67 x10E3/uL | ALANINE AMINOTRANSFERASE [3]: 40.33 u/L | ALBUMIN [3]: 4.83 G/DL | ALKALINE PHOSPHATASE [3]: 335 u/L | ASPARTATE AMINOTRANSFERASE [3]: 84.67 u/L | BLOOD UREA NITROGEN [3]: 20.33 mg/dL | CARBON DIOXIDE [3]: 26 mmol/L | CHLORIDE [3]: 104 MEQ/L | CHOLESTEROL [3]: 78.67 mg/dL | CREATINE PHOSPHOKINASE [3]: 305 u/L | CREATININE [3]: 0.26 mg/dL | GLUCOSE [3]: 178.33 mg/dL | LACTATE DEHYDROGENASE [3]: 183 u/L | LIPASE [3]: 11.67 u/L | PHOSPHORUS [3]: 15 mg/dL | POTASSIUM [3]: 6.9 MEQ/L | SODIUM [3]: 149.67 MEQ/L | TOTAL BILIRUBIN [3]: 0.13 mg/dL | TOTAL PROTEIN [3]: 6.7 G/DL | URIC ACID [3]: 2.27 mg/dL
